In PubChem BioAssay (NCI):
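Test compounds were applied to cells in 96-well plates for 48 hours at 5 doses. At the TGI there is no net growth.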

What was measured:
Test in all cases: NCI-60 cell line screen, 48 h
MALME-3M melanoma = test system: MALME-3M melanoma
NCI-H23 lung = test system: NCI-H23 lung
NCI-H460 lung = test system: NCI-H460 lung
COLO 205 colon = test system: COLO 205 colon
OVCAR-8 ovarian = test system: OVCAR-8 ovarian
ACHN renal = test system: ACHN renal
M14 melanoma = test system: M14 melanoma
MCF7 breast = test system: MCF7 breast
HS 578T breast = test system: HS 578T breast
OVCAR-4 ovarian = test system: OVCAR-4 ovarian
HOP-62 NSCLC = test system: HOP-62 NSCLC
CAKI-1 renal = test system: CAKI-1 renal
A549 NSCLC = test system: A549 NSCLC
SK-MEL-5 melanoma = test system: SK-MEL-5 melanoma
MDA-N = test system: MDA-N
HT29 colon = test system: HT29 colon
SW-620 colon = test system: SW-620 colon
U251 CNS = test system: U251 CNS
HCT-116 colon = test system: HCT-116 colon
BT-549 breast = test system: BT-549 breast
SF-268 CNS = test system: SF-268 CNS
SF-295 CNS = test system: SF-295 CNS
PC-3 prostate = test system: PC-3 prostate
UACC-62 melanoma = test system: UACC-62 melanoma
EKVX NSCLC = test system: EKVX NSCLC
SK-MEL-2 melanoma = test system: SK-MEL-2 melanoma
SK-OV-3 ovarian = test system: SK-OV-3 ovarian
K-562 leukemia = test system: K-562 leukemia
DU-145 prostate = test system: DU-145 prostate
NCI/ADR-RES ovarian = test system: NCI/ADR-RES ovarian
MDA-MB-435 = test system: MDA-MB-435
SN12C renal = test system: SN12C renal
SNB-75 CNS = test system: SNB-75 CNS
SF-539 CNS = test system: SF-539 CNS
IGROV1 ovarian = test system: IGROV1 ovarian
LOX IMVI melanoma = test system: LOX IMVI melanoma
TK-10 renal = test system: TK-10 renal
UO-31 renal = test system: UO-31 renal
NCI-H226 lung = test system: NCI-H226 lung
KM12 colon = test system: KM12 colon
UACC-257 melanoma = test system: UACC-257 melanoma
HCT-15 colon = test system: HCT-15 colon
SK-MEL-28 melanoma = test system: SK-MEL-28 melanoma
MDA-MB-231 breast = test system: MDA-MB-231 breast
T-47D breast = test system: T-47D breast
SR leukemia = test system: SR leukemia
A498 renal = test system: A498 renal
786-0 renal = test system: 786-0 renal
CCRF-CEM leukemia = test system: CCRF-CEM leukemia
OVCAR-5 ovarian = test system: OVCAR-5 ovarian
RXF 393 renal = test system: RXF 393 renal
HL-60(TB) leukemia = test system: HL-60(TB) leukemia
OVCAR-3 ovarian = test system: OVCAR-3 ovarian

**Q.** Which TGI (MALME-3M melanoma) does the source give for `CCOC(=O)O/C(=C\c1ccc(OC)cc1)c1c(OC(=O)OCC)n(C(=O)OCC)c2ccccc12` here?
**A.** > 100 µM

**Q.** What about the TGI (NCI-H23 lung) of the same compound?
**A.** > 100 µM

**Q.** And the TGI (NCI-H460 lung)?
**A.** 30.3 µM

**Q.** What about the TGI (COLO 205 colon) of the same compound?
**A.** > 100 µM

**Q.** And the TGI (OVCAR-8 ovarian)?
**A.** > 100 µM

**Q.** What about the TGI (ACHN renal) of the same compound?
**A.** > 100 µM

**Q.** And the TGI (M14 melanoma)?
**A.** > 100 µM

**Q.** What about the TGI (MCF7 breast) of the same compound?
**A.** > 100 µM

**Q.** What about the TGI (HS 578T breast) of the same compound?
**A.** > 100 µM

**Q.** What about the TGI (OVCAR-4 ovarian) of the same compound?
**A.** > 100 µM

**Q.** And the TGI (HOP-62 NSCLC)?
**A.** > 100 µM

**Q.** What about the TGI (CAKI-1 renal) of the same compound?
**A.** > 100 µM

**Q.** What about the TGI (A549 NSCLC) of the same compound?
**A.** > 100 µM

**Q.** What about the TGI (SK-MEL-5 melanoma) of the same compound?
**A.** > 100 µM

**Q.** What about the TGI (MDA-N) of the same compound?
**A.** > 100 µM

**Q.** What about the TGI (HT29 colon) of the same compound?
**A.** > 100 µM

**Q.** What about the TGI (SW-620 colon) of the same compound?
**A.** > 100 µM

**Q.** And the TGI (U251 CNS)?
**A.** > 100 µM

**Q.** What about the TGI (HCT-116 colon) of the same compound?
**A.** > 100 µM

**Q.** What about the TGI (BT-549 breast) of the same compound?
**A.** > 100 µM

**Q.** What about the TGI (SF-268 CNS) of the same compound?
**A.** > 100 µM

**Q.** And the TGI (SF-295 CNS)?
**A.** > 100 µM

**Q.** What about the TGI (PC-3 prostate) of the same compound?
**A.** > 100 µM

**Q.** What about the TGI (UACC-62 melanoma) of the same compound?
**A.** > 100 µM

**Q.** And the TGI (EKVX NSCLC)?
**A.** > 100 µM

**Q.** What about the TGI (SK-MEL-2 melanoma) of the same compound?
**A.** > 100 µM

**Q.** What about the TGI (SK-OV-3 ovarian) of the same compound?
**A.** 99.7 µM

**Q.** And the TGI (K-562 leukemia)?
**A.** > 100 µM

**Q.** What about the TGI (DU-145 prostate) of the same compound?
**A.** > 100 µM

**Q.** What about the TGI (NCI/ADR-RES ovarian) of the same compound?
**A.** > 100 µM

**Q.** And the TGI (MDA-MB-435)?
**A.** > 100 µM

**Q.** And the TGI (SN12C renal)?
**A.** > 100 µM

**Q.** What about the TGI (SNB-75 CNS) of the same compound?
**A.** > 100 µM

**Q.** And the TGI (SF-539 CNS)?
**A.** > 100 µM

**Q.** What about the TGI (IGROV1 ovarian) of the same compound?
**A.** > 100 µM

**Q.** What about the TGI (LOX IMVI melanoma) of the same compound?
**A.** > 100 µM

**Q.** And the TGI (TK-10 renal)?
**A.** 93.7 µM

**Q.** And the TGI (UO-31 renal)?
**A.** > 100 µM

**Q.** What about the TGI (NCI-H226 lung) of the same compound?
**A.** > 100 µM

**Q.** What about the TGI (KM12 colon) of the same compound?
**A.** > 100 µM

**Q.** And the TGI (UACC-257 melanoma)?
**A.** > 100 µM

**Q.** And the TGI (HCT-15 colon)?
**A.** > 100 µM

**Q.** What about the TGI (SK-MEL-28 melanoma) of the same compound?
**A.** > 100 µM

**Q.** What about the TGI (MDA-MB-231 breast) of the same compound?
**A.** 77.6 µM

**Q.** What about the TGI (T-47D breast) of the same compound?
**A.** > 100 µM

**Q.** What about the TGI (SR leukemia) of the same compound?
**A.** > 100 µM

**Q.** And the TGI (A498 renal)?
**A.** 27.3 µM

**Q.** What about the TGI (786-0 renal) of the same compound?
**A.** > 100 µM

**Q.** And the TGI (CCRF-CEM leukemia)?
**A.** > 100 µM

**Q.** What about the TGI (OVCAR-5 ovarian) of the same compound?
**A.** > 100 µM

**Q.** And the TGI (RXF 393 renal)?
**A.** 67.9 µM

**Q.** What about the TGI (HL-60(TB) leukemia) of the same compound?
**A.** > 100 µM

**Q.** And the TGI (OVCAR-3 ovarian)?
**A.** > 100 µM
